In US20120277257A1, “Methods of Treating Diseases, Pharmaceutical Compositions, and Pharmaceutical Dosage Forms” (MYREXIS, INC., priority 2009, published 2012):
Where two headings read alike, the source gives them in different places.

Legend:
[1] = test system: MV-4-11 acute myeloid leukemia; assay: MV-4-11 acute myeloid leukemia xenograft; type: in vivo, mice; conditions: 200 mg/kg oral, daily for 21 days
OVCAR-3 ovarian cancer = OVCAR-3 ovarian cancer xenograft; type: in vivo, mice; conditions: daily for 35 days
B16 melanoma allograft = assay: B16 melanoma allograft; type: in vivo, mice; conditions: 200 mg/kg oral, daily for 8 days
OPM-2 multiple myeloma = OPM-2 multiple myeloma xenograft; type: in vivo, mice; conditions: 200 mg/kg oral, daily for 21 days, p = 0.34
K-562 erythroleukemia = K-562 erythroleukemia xenograft; type: in vivo, mice; conditions: daily for 18 days
[2] = Phase I clinical trial, human plasma pharmacokinetics of oral Compound 1; type: in vivo; conditions: for AUC(0-inf) / Vd/F / AUC(0-t) / Cmax / Tmax / half-life: human, plasma, po; for Vd/F: read-out: Vz/F
Protocol: A human clinical study was initiated at a starting dose of 50 mg/m^2. Subjects had recurrent cancer refractory to available systemic therapy. Compound 1 was administered daily by mouth in tablet form for 21 consecutive days in a 28 day cycle to each enrolled subject. […] Plasma was collected pre-dose only for cycle 1 day 8. […] Patients were men and women with metastatic cancer, ranged in age from 45 to 85 years, and received doses ranging from 50 mg/m^2 to 340 mg/m^2, with a total daily dose of 100-740 mg (Tables 2A and 2B).

[3] = test system: MIA PaCa-2 pancreatic cancer; assay: MIA PaCa-2 pancreatic cancer xenograft
[4] = Day 21, Cohort 4, 176-245 mg/m^2 (340-540 mg), oral daily
[5] = both sexes, 50 mg/m^2, Day 01, Cohort 1, 50 mg/m^2 (100 mg), oral daily
[6] = both sexes, 100 mg/m^2, Day 01, Cohort 2, 100 mg/m^2 (160 mg), oral daily
[7] = both sexes, 165 mg/m^2, Day 01, Cohort 3, 165 mg/m^2 (300 mg), oral daily
[8] = both sexes, 240 mg, Day 01, Cohort 6 (BID), N = 4, 240 mg, oral twice daily
[9] = both sexes, 240 mg, Day 21, Cohort 6 (BID), N = 2, 240 mg, oral twice daily
[10] = both sexes, 245 mg/m^2, Day 01, Cohort 4, 245 mg/m^2 (340-540 mg), oral daily
[11] = both sexes, 340 mg/m^2, Day 01, Cohort 5 (BID), N = 6, 340 mg/m^2 (270-370 mg), oral twice daily
[12] = both sexes, Day 21, Cohort 4, N = 6, 176-245 mg/m^2 (340-540 mg), oral daily
[13] = 50 mg/m^2, Day 01, Cohort 1, Subject 101, 50 mg/m^2 (100 mg), oral daily
[14] = 50 mg/m^2, Day 19, Cohort 1, 50 mg/m^2 (100 mg), oral daily
[15] = 50 mg/m^2, Day 19, Cohort 1, Subject 101, 50 mg/m^2 (100 mg), oral daily
[16] = 100 mg/m^2, Day 01, Cohort 2, Subject 201, 100 mg/m^2 (160 mg), oral daily
[17] = 100 mg/m^2, Day 21, Cohort 2, 100 mg/m^2 (160 mg), oral daily
[18] = 100 mg/m^2, Day 21, Cohort 2, Subject 201, 100 mg/m^2 (160 mg), oral daily
[19] = 165 mg/m^2, Day 01, Cohort 3, Subject 301, 165 mg/m^2 (300 mg), oral daily
[20] = 165 mg/m^2, Day 21, Cohort 3, 165 mg/m^2 (300 mg), oral daily
[21] = 165 mg/m^2, Day 21, Cohort 3, Subject 301, 165 mg/m^2 (300 mg), oral daily
[22] = 245 mg/m^2, Day 01, Cohort 4, N = 6, 245 mg/m^2 (340-540 mg), oral daily
[23] = 340 mg/m^2, Day 01, Cohort 5, 340 mg/m^2 (480-620 mg), oral daily
[24] = 340 mg/m^2, Day 01, Cohort 5, N = 2, 340 mg/m^2 (480-620 mg), oral daily
[25] = 340 mg/m^2, Day 21, Cohort 5 (BID), Subject 508, 340 mg/m^2 (330 mg), oral twice daily
[26] = 340 mg/m^2, Day 21, Cohort 5, 340 mg/m^2 (620 mg), oral daily
[27] = 340 mg/m^2, Day 21, Cohort 5, Subject 503, 340 mg/m^2 (620 mg), oral daily

## C[C@H](O)C(=O)N1CCC(CCn2c(Sc3cc4c(cc3Br)OCO4)nc3c(N)ncnc32)CC1 [Compound 1, (2S)-1-[4-(2-{6-amino-8-[(6-bromo-1,3-benzodioxol-5-yl)thio]-9H-purin-9-yl}ethyl)piperidin-1-yl]-1-oxopropan-2-ol]
[1]
  tumor regression: 50% regression
OVCAR-3 ovarian cancer; 150 mg/kg oral
  TGI (tumor growth inhibition): 84%
OVCAR-3 ovarian cancer; 200 mg/kg oral
  TGI (tumor growth inhibition): 97%
B16 melanoma allograft
  TGI (tumor growth inhibition): 50% TGI
OPM-2 multiple myeloma
  TGI (tumor growth inhibition): 71% TGI (p = 0.34)
K-562 erythroleukemia; 150 mg/kg oral, p = 0.14
  TGI (tumor growth inhibition): 82% TGI (p = 0.14) 150 mg/kg,
K-562 erythroleukemia; 200 mg/kg oral, p = 0.05
  TGI (tumor growth inhibition): 97% TGI (p = 0.05)
[2]; Day 01, Cohort 1, 50 mg/m^2 (100 mg), oral daily
  CL/F: 4098 mL/h
[2]; Day 01, Cohort 2, 100 mg/m^2 (160 mg), oral daily
  CL/F: 4343 mL/h
[2]; Day 01, Cohort 3, 165 mg/m^2 (300 mg), oral daily
  CL/F: 2405 mL/h
[2]; Day 01, Cohort 4, 245 mg/m^2 (340-540 mg), oral daily
  CL/F: 3118 mL/h
[2]; Day 01, Cohort 5 (BID), 340 mg/m^2 (270-370 mg), oral twice daily
  CL/F: 2517 mL/h
[2]; Day 01, Cohort 5, 340 mg/m^2 (480-620 mg), oral daily
  CL/F: 2500 mL/h
[2]; Day 01, Cohort 6 (BID), 240 mg, oral twice daily
  CL/F: 5956 mL/h
[2]; Day 19, Cohort 1, 50 mg/m^2 (100 mg), oral daily
  CL/F: 4547 mL/h
[2]; Day 21, Cohort 2, 100 mg/m^2 (160 mg), oral daily
  CL/F: 3213 mL/h
[2]; Day 21, Cohort 3, 165 mg/m^2 (300 mg), oral daily
  CL/F: 1502 mL/h
[2]; [4]
  CL/F: 3509 mL/h
  AUC(0-inf): 202000 ng·h/mL
  Vd/F: 77.9 L
[2]; Day 21, Cohort 5 (BID), 340 mg/m^2 (330 mg), oral twice daily
  CL/F: 4746 mL/h
[2]; Day 21, Cohort 5, 340 mg/m^2 (620 mg), oral daily
  CL/F: 1323 mL/h
[2]; Day 21, Cohort 6 (BID), 240 mg, oral twice daily
  CL/F: 4003 mL/h
[2]; [5]
  AUC(0-inf): 24400 ng·h/mL
  Vd/F: 50.5 L
[2]; [6]
  AUC(0-inf): 36800 ng·h/mL
  Vd/F: 61.6 L
[2]; both sexes, 100 mg/m^2, Day 01, Cohort 2, 100 mg/m^2 (160 mg), oral daily, read-out: AUC(0-24)
  AUC(0-t): 29900 ng·h/mL
[2]; [7]
  AUC(0-inf): 125000 ng·h/mL
  Vd/F: 40 L
[2]; both sexes, 165 mg/m^2, Day 01, Cohort 3, 165 mg/m^2 (300 mg), oral daily, read-out: AUC(0-24)
  AUC(0-t): 91800 ng·h/mL
[2]; [8]
  Cmax: 6250 ng/mL
  Tmax: 1 h
  half-life: 5.5 h
[2]; [9]
  Cmax: 9200 ng/mL
  Tmax: 1.5 h
  half-life: 6.2 h
[2]; [10]
  AUC(0-inf): 143000 ng·h/mL
  Vd/F: 61.4 L
[2]; both sexes, 245 mg/m^2, Day 01, Cohort 4, 245 mg/m^2 (340-540 mg), oral daily, read-out: AUC(0-24)
  AUC(0-t): 99100 ng·h/mL
[2]; [11]
  Cmax: 8120 ng/mL
  Tmax: 2 h
  half-life: 7.5 h
[2]; [12]
  Cmax: 9270 ng/mL
  Tmax: 2 h
  half-life: 13.2 h
[2]; human cancer patients
  oral bioavailability: orally bioavailable
[2]; human patients, oral tablets
  increase in drug levels with increasing dose: more-than-proportional increase
[2]; 50 mg/m^2, Day 01, Cohort 1, 50 mg/m^2 (100 mg), oral daily, read-out: AUC(0-24)
  AUC(0-t): 20600 ng·h/mL
[2]; [13]
  Cmax: 1900 ng/mL
  Tmax: 2 h
  half-life: 8.5 h
[2]; [14]
  AUC(0-inf): 30800 ng·h/mL
  Vd/F: 88 L
[2]; 50 mg/m^2, Day 19, Cohort 1, 50 mg/m^2 (100 mg), oral daily, read-out: AUC(0-24)
  AUC(0-t): 22000 ng·h/mL
[2]; [15]
  Cmax: 1700 ng/mL
  Tmax: 1 h
  half-life: 13.4 h
[2]; [16]
  Cmax: 2950 ng/mL
  Tmax: 2 h
  half-life: 9.8 h
[2]; [17]
  AUC(0-inf): 67300 ng·h/mL
  Vd/F: 52 L
[2]; 100 mg/m^2, Day 21, Cohort 2, 100 mg/m^2 (160 mg), oral daily, read-out: AUC(0-24)
  AUC(0-t): 49800 ng·h/mL
[2]; [18]
  Cmax: 3180 ng/mL
  Tmax: 6 h
  half-life: 11.2 h
[2]; [19]
  Cmax: 6870 ng/mL
  Tmax: 4 h
  half-life: 11.5 h
[2]; [20]
  AUC(0-inf): 308000 ng·h/mL
  Vd/F: 30.4 L
[2]; 165 mg/m^2, Day 21, Cohort 3, 165 mg/m^2 (300 mg), oral daily, read-out: AUC(0-24)
  AUC(0-t): 200000 ng·h/mL
[2]; [21]
  Cmax: 11800 ng/mL
  Tmax: 8 h
  half-life: 14 h
[2]; 240 mg, Day 01, Cohort 6 (BID), 240 mg, oral twice daily, based on a single 12-hour dosing interval
  AUC(0-inf): 55000 ng·h/mL
[2]; 240 mg, Day 01, Cohort 6 (BID), 240 mg, oral twice daily, read-out: AUC(0-12)
  AUC(0-t): 38200 ng·h/mL
[2]; 240 mg, Day 01, Cohort 6 (BID), 240 mg, oral twice daily
  Vd/F: 39.6 L
[2]; 240 mg, Day 21, Cohort 6 (BID), 240 mg, oral twice daily, based on a single 12-hour dosing interval
  AUC(0-inf): 95100 ng·h/mL
[2]; 240 mg, Day 21, Cohort 6 (BID), 240 mg, oral twice daily, read-out: AUC(0-12)
  AUC(0-t): 67600 ng·h/mL
[2]; 240 mg, Day 21, Cohort 6 (BID), 240 mg, oral twice daily
  Vd/F: 34.6 L
[2]; [22]
  Cmax: 7840 ng/mL
  Tmax: 2.5 h
  half-life: 10.8 h
[2]; 340 mg/m^2, Day 01, Cohort 5 (BID), 340 mg/m^2 (270-370 mg), oral twice daily, based on a single 12-hour dosing interval
  AUC(0-inf): 107000 ng·h/mL
[2]; 340 mg/m^2, Day 01, Cohort 5 (BID), 340 mg/m^2 (270-370 mg), oral twice daily, read-out: AUC(0-12)
  AUC(0-t): 62100 ng·h/mL
[2]; 340 mg/m^2, Day 01, Cohort 5 (BID), 340 mg/m^2 (270-370 mg), oral twice daily
  Vd/F: 28.4 L
[2]; [23]
  AUC(0-inf): 334000 ng·h/mL
  Vd/F: 51.4 L
[2]; 340 mg/m^2, Day 01, Cohort 5, 340 mg/m^2 (480-620 mg), oral daily, read-out: AUC(0-24)
  AUC(0-t): 233000 ng·h/mL
[2]; [24]
  Cmax: 16300 ng/mL
  Tmax: 3 h
  half-life: 14.1 h
[2]; 340 mg/m^2, Day 21, Cohort 5 (BID), 340 mg/m^2 (330 mg), oral twice daily, based on a single 12-hour dosing interval
  AUC(0-inf): 96300 ng·h/mL
[2]; 340 mg/m^2, Day 21, Cohort 5 (BID), 340 mg/m^2 (330 mg), oral twice daily, read-out: AUC(0-12)
  AUC(0-t): 69500 ng·h/mL
[2]; 340 mg/m^2, Day 21, Cohort 5 (BID), 340 mg/m^2 (330 mg), oral twice daily
  Vd/F: 45.7 L
[2]; [25]
  Cmax: 11000 ng/mL
  Tmax: 1 h
  half-life: 6.7 h
[2]; [26]
  AUC(0-inf): 610000 ng·h/mL
  Vd/F: 36.8 L
[2]; 340 mg/m^2, Day 21, Cohort 5, 340 mg/m^2 (620 mg), oral daily, read-out: AUC(0-24)
  AUC(0-t): 363000 ng·h/mL
[2]; [27]
  Cmax: 25600 ng/mL
  Tmax: 1 h
  half-life: 19.3 h
[2]; Day 21, Cohort 4, 176-245 mg/m^2 (340-540 mg), oral daily, read-out: AUC(0-24)
  AUC(0-t): 127000 ng·h/mL
[3]; 150 mg/kg oral, daily for 15 days, Day 15
  TGI (tumor growth inhibition): 67%
[3]; 150 mg/kg oral, daily for 21 days (Table 1)
  TGI (tumor growth inhibition): 67%
[3]; 200 mg/kg oral, daily for 15 days, Day 15
  TGI (tumor growth inhibition): 95%
[3]; 200 mg/kg oral, daily for 21 days (Table 1)
  TGI (tumor growth inhibition): 95%
